Source: paper PMC11400632, “Substrate selectivity and inhibition of the human lysyl hydroxylase JMJD7” (Protein Science : A Publication of the Protein Society, 2024)
Square brackets hold non-standard residues; d marks the D form. Ends that are not written are not given here. Met(O) = CS(=O)CC[C@H](N)C(=O)O; SeMet = C[Se]CC[C@H](N)C(=O)O

Molecular target: T1, human JMJD7 (Homo sapiens, UniProt P0C870)
T1 construct: human JMJD7 (residues 1–316) with an N‐terminal His6‐tag; His6 (N); made in house; host or cells: Escherichia coli Rosetta (DE3)
Assay: LC-MS assay of JMJD7-catalyzed hydroxylation/oxidation of DRG1 peptides
Format: biochemical
Details: for degree of oxidation (+16 Da) of cysteine/methionine analog peptides by JMJD7 / extent of hydroxylation by JMJD7 at higher 2OG concentration: 2 μM JMJD7, 10 μM peptide; for extent of hydroxylation by JMJD7 at higher 2OG concentration: 20 μM 2OG, pH 7.5, 2 h incubation; for extent of hydroxylation (+16 Da) by JMJD7: standard conditions: 2 μM JMJD7, 10 μM DRG1 peptide, room temperature
Experimental: Initial assays were carried out by incubation of purified recombinant (Markolovic et al., [2018]) human JMJD7 (2 μM) in the presence of a DRG1 derived peptide (10 μM), 2OG (10 μM), ferrous ammonium sulfate (FAS, 10 μM), and L‐ascorbate (LAA, 100 μM) in Tris buffer at pH 7.5 for 2 h at room temperature. Potential conversion to a hydroxylated product (+16 Da mass shift) was monitored by liquid‐chromatography‐mass‐spectrometry (LC–MS). […] The assay results also implied that DRG1‐Orn was hydroxylated, but to a lower extent (~21%) than DRG1‐Lys. […] The alcohol‐containing peptide hydroxynorleucine (DRG1‐HNle), was hydroxylated at relatively low levels (~24%), implying that H‐bonding interactions and positive charge of the N^ɛ‐amino group of lysine are important for efficient binding and catalysis, but that a neutral alcohol can still be accommodated at the active site (Figure 3f) (Markolovic et al., [2018]).
All reagents were procured from Sigma Aldrich. 2‐Oxoglutarate (2OG, 10 mM) and L‐ascorbic acid (LAA, 50 mM) solutions were prepared freshly by dissolving the solids in deionized water. Ferrous ammonium sulfate (FAS) solution was prepared freshly by dissolving FAS at 400 mM in 20 mM HCl with subsequent dilution to 1 mM using deionized water. JMJD7 assays using DRG1 (16–40) based peptides were performed with the following conditions: (i) 2 or 5 μM JMJD7, 10 μM DRG1 peptide, 100 μM LAA, 10 μM FAS, 10 μM 2OG in mM 50 Tris‐buffer (pH 7.5), (ii) 2 μM JMJD7, 10 μM DRG1 peptide, 100 μM LAA, 10 μM FAS, 20 μM 2OG in mM 50 Tris‐buffer (pH 7.5). Reactions were initiated by addition of enzyme to the cosubstrate/substrate solution in a final reaction volume of 50 μL with 2 h incubation at room temperature. A positive control reaction containing enzyme and a validated peptide substrate was included in all screening studies. After 2 h, reactions were stopped by addition of 5 μL of 10% (v/v) LC–MS grade formic acid (Fisher Scientific) and transferred to a 96 well plate (Agilent). Intact mass peptide analysis was performed by LC–MS using an Agilent 1290 infinity II LC system equipped with an Agilent 1290 multisampler and an Agilent 1290 high speed pump and connected to an Agilent 6550 accurate mass iFunnel quadrupole time of flight (Q‐TOF) mass spectrometer. The reaction mixture (4 μL) was injected and loaded onto a ZORBAX RRHD Eclipse Plus C18 column (Agilent). Solvent A consisted of LC–MS grade water containing 0.1% (v/v) formic acid and solvent B consisted of MeCN containing 0.1% (v/v) formic acid. Peptides were separated using a step wise gradient (0 min – 95% solvent A, 1.0 min – 80% solvent A, 3.0 min – 45% solvent A, 4.0 min – 45% solvent A, 5.0 min – 0% solvent A, 6.0 min – 0% solvent A, 7.0 min – 95% solvent A). This was followed by a 3 min elution with 95% solvent A to re‐equilibrate the column. Flow rates were 0.2 mL/min. The mass spectrometer was operated in the positive ion mode with a drying gas temperature (280°C), drying gas flow rate (13 L min^−1), nebulizer pressure (40 psig), sheath gas temperature (350°C), sheath gas flow rate (12 L min^−1), capillary voltage (4000 V), nozzle voltage (1000 V). Data were analyzed using Agilent MassHunter Qualitative Analysis (Version B.07.00) software.

[1] = 10 μM 2OG, 10 μM FAS, 100 μM LAA
[2] = 10 μM 2OG, 10 μM FAS, 100 μM LAA, Tris pH 7.5, 2 h

T1 sequence (P0C870 whole entry, the tested form may be a part): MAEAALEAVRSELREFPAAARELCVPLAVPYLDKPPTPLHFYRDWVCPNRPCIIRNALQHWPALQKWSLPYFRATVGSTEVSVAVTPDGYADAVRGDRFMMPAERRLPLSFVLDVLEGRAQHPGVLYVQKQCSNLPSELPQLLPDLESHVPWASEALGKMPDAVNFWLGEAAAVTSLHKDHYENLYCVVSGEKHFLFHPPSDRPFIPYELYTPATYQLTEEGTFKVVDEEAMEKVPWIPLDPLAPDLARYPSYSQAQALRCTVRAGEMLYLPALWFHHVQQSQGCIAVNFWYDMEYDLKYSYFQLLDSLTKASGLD

Row | Substance | degree of oxidation (+16 Da) of cysteine/methionine analog peptides by JMJD7 [1] | extent of hydroxylation by JMJD7 at higher 2OG concentration (10 μM FAS, 100 μM LAA) | other results
1 | ARTQKN[SeMet]ATAHHLGLLKARLAKLRR [DRG1‐SeMet, 25-mer DRG1 (16–40) peptide with SeMet at position 22] | showed no evidence for oxidation |  | 
2 | ARTQKNhLysATAHHLGLLKARLAKLRR [DRG1‐hLys, 25-mer DRG1 (16–40) peptide with hLys at position 22] |  | ~ 5% | extent of hydroxylation (+16 Da) by JMJD7 [2]: did not undergo hydroxylation within detection limits
3 | ARTQKNCysNHmeATAHHLGLLKARLAKLRR [DRG1‐CysNHMe, 25-mer DRG1 (16–40) peptide with γ-methylthialysine at position 22] |  |  | possibly stable hemithioacetal product detected by MS (standard conditions: 2 μM JMJD7, 10 μM peptide, 10 μM 2OG, 10 μM FAS, 100 μM LAA, Tris pH 7.5, 2 h): 12%; fate of the JMJD7 C3-hydroxylation product (standard conditions: 2 μM JMJD7, 10 μM peptide, 10 μM 2OG, 2 h): fragmentation to form DRG1‐formylglycine and its hydrated products
4 | ARTQKN[Met(O)]ATAHHLGLLKARLAKLRR [DRG1‐MetO] | showed no evidence for oxidation |  | 
5 | ARTQKND-LysATAHHLGLLKARLAKLRR [DRG1‐D‐Lys, 25-mer DRG1 (16–40) peptide with epimeric D-lysine at position 22] |  | ~ 6% | extent of hydroxylation (+16 Da) by JMJD7 [2]: not hydroxylated within detection limits
6 | ARTQKNmeOhSerATAHHLGLLKARLAKLRR [DRG1‐meOhSer, 25-mer DRG1 (16–40) peptide with meOhSer at position 22] | showed no evidence for oxidation |  | 
7 | ARTQKNLysMeATAHHLGLLKARLAKLRR [DRG1‐LysMe, 25-mer DRG1 (16–40) peptide with LysMe at position 22] |  | ~ 7% | 
8 | ARTQKNCysMeATAHHLGLLKARLAKLRR [DRG1‐CysMe, 25-mer DRG1 (16–40) peptide with CysMe at position 22] | oxidized relatively efficiently |  | 
9 | ARTQKNhSerATAHHLGLLKARLAKLRR [DRG1‐hSer, 25-mer DRG1 (16–40) peptide with hSer at position 22] | did also not undergo oxidation |  | 
10 | ARTQKNnArgATAHHLGLLKARLAKLRR [DRG1‐nArg, 25-mer DRG1 (16–40) peptide with nArg at position 22] |  | did not manifest evidence for hydroxylation | 
11 | ARTQKNAhpATAHHLGLLKARLAKLRR [DRG1‐Ahp, 25-mer DRG1 (16–40) peptide with Ahp at position 22] |  | did not manifest evidence for hydroxylation | 
12 | ARTQKNhMetATAHHLGLLKARLAKLRR [DRG1‐hMet, 25-mer DRG1 (16–40) peptide with homomethionine at position 22] | ~ 89% |  | 
